# Counter-ions that a name gives are not always drawn.
# Tests used:
# Format in all cases: biochemical
# factor Xa [1] = assay: factor Xa chromogenic assay with guanidine derivatives (substrate S-2732, mAbs/min at 405 nm); conditions: for factor Xa activity: Fig. 3, activity plotted against guanidine derivative or NaCl concentration, 6 nkat/mL factor Xa, 20mM Hepes pH 7.5, 37°C, 1.5mM S-2732; for factor Xa inhibition: Fig. 4, dilutions in water, 6nkat/mL factor Xa, 20mM HEPES pH 7.5, 1.5 mM S-2732, ranking between compounds
# Description: In this experiment, activity of factor Xa in the presence of guanidine sulfate and its derivatives (e.g., 1-methylguanidine sulfate, 1,1-dimethylguanidine sulfate, 1,1-diethylguanidine, N-benzyl, N-methylguanidine sulfate, 1,1,3,3-tetramethylgunidine and 1,1-dimethylbiguanide HCl) was evaluated using a chromogenic assay. In the experiment, each guanidine derivative was dissolved in deionized (DI) water to a final concentration of 100mM. A number of such guanidine dilutions were prepared. Guanidine derivative levels in the solutions were tested in triplicate at 37°C as follows: 40µL (microliters) of each guanidine derivative level was incubated for 20 seconds (s) to 60s before 40µL of 6 nkat/mL factor Xa in 20mM Hepes pH 7.5 buffer was added to the reaction. After an incubation period of 150s to 180s, 100µL of 1.5mM factor Xa chromogenic substrate S-2732™ was added to the reaction and milli-absorbance per minute (mAbs/min) at 405nm (nanometers) was measured after a 20s delay.
# In this experiment, the effects of guanidine sulfate and the guanidine derivatives: 1-methylguanidine sulfate, 1,1-dimethylguanidine sulfate, 1,1-diethylguanidine, and N-benzyl, N-methylguanidine sulfate were analyzed using a chromogenic assay. A number of dilutions were prepared in water with guanidine or a guanidine derivative of the type described herein. 40µL of each of the guanidine or guanidine derivatives were mixed for 20s to 60s with 40µL of 6nkat/mL factor Xa diluted in 20mM HEPES, pH 7.5 buffer. After an incubation period of 150s to 180s, 100µL of the factor Xa chromogenic substrate S-2732™ (1.5 mM) was added to each of the guanidine and factor Xa mixtures and each mixture was chromogenically measured at 405nm mAbs/min after a 20s delay.
# factor Xa [2] = assay: factor Xa substrate turnover rates at a range of factor Xa levels, 1,1-dimethylguanidine compared to NaCl; conditions: Fig. 6; 22mM 1,1-dimethylguanidine compared to 33 mM NaCl; 37°C, 1.5mM S-2732
# Description: Guanidine derivatives modulate factor Xa enzymatic activity in a reaction, as explained previously, thereby slowing-down the reaction. As a result, greater amounts and/or concentrations of factor Xa can be used in a reaction when a guanidine derivative is incorporated into the reaction. In this experiment, factor Xa levels were tested in a reaction in triplicate at 37°C as follows: 40µL of factor Xa was incubated for 20s to 60s before 40µL of 100mM 1,1-dimethylguanidine or 150mM NaCl in water was added to the reaction. After an incubation period of 150s to 180s, 100µL of 1.5mM factor Xa chromogenic substrate S-2732™ was added to the reaction and mAbs/min at 405 nm was measured after a 20s delay. In Fig. 6, substrate turnover rates (e.g., coloring of the substrate) in the presence of 22mM 1,1-dimethylguanidine 601 were compared to substrate turnover rates in the presence of 33 mM NaCl 602. As evident from Fig. 6, greater amounts and/or concentrations of factor Xa can be added to the reaction in the presence of 1,1-dimethylguanidine to produce the same substrate turnover rates relative to NaCl. […] Greater amounts and/or concentrations of factor Xa facilitate detection of factor Xa inhibitors or reversal of such inhibitors in an assay, as noted previously.
# factor Xa [3] = assay: factor Xa chromogenic activity in plasma sample containing dimethylguanidine (9:1 sample to factor Xa ratio); conditions: Fig. 7, 50mM compared to 25mM dimethylguanidine, 1.5 mM S-2732, 37°C
# Description: In this experiment, 180µL of a plasma sample containing dimethylguanidine (DMG) and 1.5 mM substrate S-2732™ were mixed with 20µL of factor Xa (a 9:1 sample to factor Xa ratio). The activity of factor Xa was determined at 37°C based on chromogenic activity of the substrate. The activity of factor Xa linearly correlates with the factor Xa concentration in the presence of dimethylguanidine. […] Thus, increasing the amount of dimethylguanidine in a sample reduces a rate of the reaction. In some implementations, dimethylguanidine can be added to a reaction at a concentration of up to about 500mM.
Molecule,factor Xa activity (factor Xa [1]),factor Xa inhibition (factor Xa [1]),other results
"CN(C)C(=N)NC(=N)N [1,1-dimethyl-biguanide, reference compound]","modulate factor Xa dose-dependently, although less than 1-methylated guanidine sulfate",,
"CCN(CC)C(=N)N.O=S(=O)(O)O [1,1-diethylguanidine sulfate]",,largest extent of factor Xa inhibition,
NaCl [reference compound],activates factor Xa activity,,
CN(Cc1ccccc1)C(=N)N.O=S(=O)(O)O [N-benzyl N-methylguanidine sulfate],,reduced factor Xa inhibition as compared to the factor Xa inhibition of mixtures containing dialkylated guanidine derivatives,
N=C(N)N [guanidine sulfate],"modulate factor Xa dose-dependently, although less than 1-methylated guanidine sulfate",least amount of reduction in factor Xa inhibition,
"CN(C)C(=N)N [1,1-dimethylguanidine]",,,substrate turnover rates (factor Xa [2]): the reaction has been slowed-down; rate of the reaction (activity of factor Xa) (factor Xa [3]): slows reaction of the factor Xa in a sample greater than 25mM
"CN(C)C(=N)N.O=S(=O)(O)O [1,1-dimethylguanidine sulfate]",,largest extent of factor Xa inhibition,
CNC(=N)N [1-methylguanidine sulfate],modulates factor Xa dose-dependently,reduced factor Xa inhibition as compared to the factor Xa inhibition of mixtures containing dialkylated guanidine derivatives,

# — patent EP4667582A1, “FACTOR XA REAGENT” (Instrumentation Laboratory Company, priority 2024, dated 2025)
